US9447069B2, “ROR modulators and their uses” (INNOV17 LLC, priority 2012, dated 2016)
pEC50, pIC50: −log10 of the molar value. Read-outs that look alike come from different tables or passages of the source.

Key:
[1] = test system: FOXP3; test: Real-Time qRT-PCR gene expression in TH17 cells (FOXP3); assay type: cell-based, human; parameters: key: A: No change in gene expression observed relative to DMSO treated Th17 cells; B: Decreased gene expression observed relative to DMSO treated Th17 cells; C: Increased gene expression observed relative to DMSO treated Th17 cells; conditions: normalized to six reference genes
Method: (§1) Peripheral blood mononuclear cells (PBMCs) were sourced from freshly prepared leukocyte enriched plasma (buffy coat) from healthy volunteers from which PBMCs were isolated by density gradient centrifugation using Ficoll-Paque™ PLUS (GE Healthcare). Naïve CD4+ T cells were isolated using the Naïve CD4+ T cell Isolation Kit II (Miltenyi Biotec) as per manufacturer's instructions. CD4+ T cells were plated at 5×10^4 cells/well in 96 well plates pre-coated with immobilized human (h)-αCD3 antibody (eBioscience) then differentiated to TH17 cells using h-αCD28, h-αIFN-γ, h-αIL-4, h-IL-6, h-IL-23, h-IL-1β, h-TGF-β1 (eBioscience) and maintained in a cell culture incubator at 37° C. with 5% CO2 in TexMACS Medium (Miltenyi Biotec) supplemented with 1% Penicillin/Streptomycin (Lonza) over 5 days.
(§2) RNA was isolated from TH17 cells and cDNA was synthesized using the Verso cDNA kit (Thermo Scientific) as per manufacturer's instructions. IL-17A, IL-17F, IL-21, IL-22, G-CSF, IL-23R and FOXP3 gene expression were determined for compound treated and untreated TH17 cell samples using Solaris qPCR Gene expression assays (Thermo Scientific) with an iCycler iQ Real-Time PCR Detection System (Bio-Rad). Individual gene expression was normalized to a panel of six reference genes (ACTB, TBP, HPRT1, PGK1, TFRC and PPIA) (Thermo Scientific) and analyzed by REST 2009 (Qiagen) in accordance to MIQE guidelines (Bustin et al. (2009) Clin. Chem, 55:611-622). The effects of compounds on TH17 cytokine gene expression are presented as fold change in mRNA levels of compound treated TH17 cells relative to DMSO treated cells in the table below.

[2] = target: T1, RORα LBD (Homo sapiens, UniProt P35398); test: TR-FRET D22 co-activator displacement from RORα LBD; assay type: biochemical
T1 construct: purified GST-tagged (i) RORγ LBD or (ii) RORα LBD; purchased Life Technologies
T1 sequence (P35398 272-510 limits assumed): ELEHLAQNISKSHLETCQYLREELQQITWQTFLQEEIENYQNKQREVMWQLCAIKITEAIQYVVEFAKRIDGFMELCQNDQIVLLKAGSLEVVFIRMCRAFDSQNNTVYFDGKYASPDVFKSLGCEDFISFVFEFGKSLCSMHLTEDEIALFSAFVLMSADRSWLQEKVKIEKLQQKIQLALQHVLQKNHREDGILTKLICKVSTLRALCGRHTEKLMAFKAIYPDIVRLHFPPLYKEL
Description: (§3) The Time-Resolved Fluorescence Resonance Energy Transfer (TR-FRET) assay kit (Life Technologies) was used to measure compound efficacy to disrupt or enhance ligand-mediated interaction of the co-activator and co-repressor peptides with the purified GST-tagged (i) RORγ LBD or (ii) RORα LBD. The RORγ LBD and RORα LBD each have a basal level of interaction with the co-activator D22 or co-repressor NCoR1-D2 in the absence of ligand, thus it is possible to identify compounds that inhibit or induce RORγ and/or RORα co-activator/co-repressor interactions, thus determining RORα, RORγ, or RORα/RORγ compound selectivity. The assay was performed as per manufacturer's instructions and TR-FRET was assessed 2 and 20 hours post-assay initiation. Compounds were identified to (i) have no impact on either co-activator displacement or […] from the assessed LBD (ii) promote co-activator displacement from the assessed LBD (iii) promote co-repressor recruitment to the assessed LBD or (iv) concurrently promote co-activator displacement from the assessed LBD and co-repressor recruitment to the assessed LBD.

[3] = test system: IL-23R; test: Real-Time qRT-PCR gene expression in TH17 cells (IL-23R); assay type: cell-based, human; parameters: key: A: No change in gene expression observed relative to DMSO treated Th17 cells; B: Decreased gene expression observed relative to DMSO treated Th17 cells; C: Increased gene expression observed relative to DMSO treated Th17 cells; conditions: normalized to six reference genes
Method: as §1, §2

[4] = test system: IL-17F; test: Real-Time qRT-PCR gene expression in TH17 cells (IL-17F); assay type: cell-based, human; parameters: key: A: No change in gene expression observed relative to DMSO treated Th17 cells; B: Decreased gene expression observed relative to DMSO treated Th17 cells; C: Increased gene expression observed relative to DMSO treated Th17 cells; conditions: normalized to six reference genes
Method: as §1, §2

[5] = target: T2, RORγ LBD (Homo sapiens, UniProt P51449); test: TR-FRET D22 co-activator displacement from RORγ LBD; assay type: biochemical; parameters: purified GST-tagged (i) RORγ LBD or (ii) RORα LBD; purchased Life Technologies
T2 sequence (P51449 269-508 limits assumed): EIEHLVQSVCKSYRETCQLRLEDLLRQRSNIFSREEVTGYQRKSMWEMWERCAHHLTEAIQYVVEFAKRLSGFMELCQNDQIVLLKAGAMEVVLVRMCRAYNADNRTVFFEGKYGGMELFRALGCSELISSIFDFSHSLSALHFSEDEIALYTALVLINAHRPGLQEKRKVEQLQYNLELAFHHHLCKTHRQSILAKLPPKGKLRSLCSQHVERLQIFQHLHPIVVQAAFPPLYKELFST
Description: as §3

[6] = test system: IL-17A; test: Real-Time qRT-PCR gene expression in TH17 cells (IL-17A); assay type: cell-based, human; parameters: key: A: No change in gene expression observed relative to DMSO treated Th17 cells; B: Decreased gene expression observed relative to DMSO treated Th17 cells; C: Increased gene expression observed relative to DMSO treated Th17 cells; conditions: normalized to six reference genes
Method: as §1, §2

[7] = test system: IL-17F; test: TH17 cytokine inhibition measured by ELISA (IL-17F); assay type: cell-based; conditions: 120 h; human TH17 cells, 5 days differentiation, ELISA of supernatants, 0.1% DMSO
Method: as §1
Human CD4+ T cells were differentiated to TH17 cells as described in the presence or absence of various concentrations of compounds in a final concentration of 0.1% DMSO in TexMACS medium. Supernatants were collected and stored at −20° C. until they were to be assayed for IL-17A, IL-17F, IL-17AF, IL-21 and/or IL-22 levels as determined by Ready-Set-Go ELISA kits (eBioscience) as per manufacturer's instructions. Endpoint absorbance was read at 450 nm and 570 nm according to manufacturer's instructions (eBioscience) using a microplate reader (Perkin Elmer). The percentage of cytokine inhibition was calculated with reference to DMSO treated cells and the IC50s were determined by GraphPad Prism software and presented in the table below.

[8] = TR-FRET assessed 2 hr post-assay initiation, read-out: RORα EC50 D22 co-activator displacement, 2 hr
[9] = TR-FRET assessed 20 hr post-assay initiation, read-out: RORα EC50 D22 co-activator displacement, 20 hr
[10] = TR-FRET assessed 2 hr post-assay initiation, read-out: RORγ EC50 D22 co-activator displacement, 2 hr
[11] = TR-FRET assessed 20 hr post-assay initiation, read-out: RORγ EC50 D22 co-activator displacement, 20 hr

| Compound | Fold change in mRNA levels of compound treated TH17 cells relative to DMSO treated cells, FOXP3 [1] | pEC50 [2, 8] | pEC50 [2, 9] | Fold change in mRNA levels of compound treated TH17 cells relative to DMSO treated cells, IL-23R [3] | Fold change in mRNA levels of compound treated TH17 cells relative to DMSO treated cells, IL-17F [4] | pEC50 [5, 10] | pEC50 [5, 11] | Fold change in mRNA levels of compound treated TH17 cells relative to DMSO treated cells, IL-17A [6] | pIC50 [7] |
| --- | --- | --- | --- | --- | --- | --- | --- | --- | --- |
| Cc1cc(-c2ccc3c(c2)CCCN3Cc2ccc(C(O)(C(F)(F)F)C(F)(F)F)cc2)[nH]n1 [Example 1, 1,1,1,3,3,3-hexafluoro-2-(4-((6-(3-methyl-1H-pyrazol-5-yl)-3,4-dihydroquinolin-1(2H)-yl)methyl)phenyl)propan-2-ol] | C | < 4.52 | > 4.52 | A | B | > 4.52 | > 4.52 | A | > 5.00 |
| OC(c1ccc(CN2CCCc3cc(-c4cn[nH]c4)ccc32)cc1)(C(F)(F)F)C(F)(F)F [Example 2, 2-(4-((6-(1H-pyrazol-4-yl)-3,4-dihydroquinolin-1(2H)-yl)methyl)phenyl)-1,1,1,3,3,3-hexafluoropropan-2-ol] | C | > 4.52 | > 4.52 | A | B | > 4.52 | > 4.52 | B | > 5.00 |
| Cc1n[nH]c(-c2ccc3c(c2)CCCN3Cc2ccc(C(O)(C(F)(F)F)C(F)(F)F)cc2)n1 [Example 3, 1,1,1,3,3,3-hexafluoro-2-(4-((6-(3-methyl-1H-1,2,4-triazol-5-yl)-3,4-dihydroquinolin-1(2H)-yl)methyl)phenyl)propan-2-ol] | A | < 4.52 | < 4.52 | A | B | > 4.52 | < 4.52 | B | > 5.00 |
| Cc1cc(-c2ccc3c(c2)CCC(=O)N3Cc2ccc(C(O)(C(F)(F)F)C(F)(F)F)cc2)[nH]n1 [Example 4, 1-(4-(1,1,1,3,3,3-hexafluoro-2-hydroxypropan-2-yl)benzyl)-6-(3-methyl-1H-pyrazol-5-yl)-3,4-dihydroquinolin-2(1H)-one] | A | < 4.52 | < 4.52 | A | B | < 4.52 | < 4.52 | B | > 5.00 |
| O=C1CCc2cc(-c3cn[nH]c3)ccc2N1Cc1ccc(C(O)(C(F)(F)F)C(F)(F)F)cc1 [Example 5, 1-(4-(1,1,1,3,3,3-hexafluoro-2-hydroxypropan-2-yl)benzyl)-6-(1H-pyrazol-4-yl)-3,4-dihydroquinolin-2(1H)-one] | A | < 4.52 | < 4.52 | A | A | < 4.52 | > 4.52 | A | > 5.00 |
| Cc1n[nH]c(-c2ccc3c(c2)CCC(=O)N3Cc2ccc(C(O)(C(F)(F)F)C(F)(F)F)cc2)n1 [Example 6, 1-(4-(1,1,1,3,3,3-hexafluoro-2-hydroxypropan-2-yl)benzyl)-6-(3-methyl-1H-1,2,4-triazol-5-yl)-3,4-dihydroquinolin-2(1H)-one] | C | > 4.52 | > 4.52 | C | B | > 4.52 | > 4.52 | B | < 5.00 |
